Assays:
[1] = target: Protein-tyrosine kinase 6 (Homo sapiens, UniProt Q13882); assay: Inhibition of recombinant full length human BRK using poly(Glu, Tyr) 4:1 as substrate incubated for 40 mins in presence of [gamma-33ATP] by radiometric scintillation counting analysis
[2] = target: Serine/threonine-protein kinase B-raf (Homo sapiens, UniProt P15056, V600E); assay: Inhibition of recombinant full length human B-Raf V599E mutant (416 to end residues) using myelin basic protein as substrate incubated for 40 mins in presence of [gamma-33ATP] by radiometric scintillation counting analysis
[3] = target: Calcium/calmodulin-dependent protein kinase type 1 (Homo sapiens, UniProt Q14012); assay: Inhibition of recombinant human CaMK1alpha (2 to end residues) using calmodulin as substrate incubated for 40 mins in presence of [gamma-33ATP] by radiometric scintillation counting analysis
[4] = target: Calcium/calmodulin-dependent protein kinase type 1D (Homo sapiens, UniProt Q8IU85); assay: Inhibition of recombinant full length human CaMK1delta using calmodulin as substrate incubated for 40 mins in presence of [gamma-33ATP] by radiometric scintillation counting analysis
[5] = target: Discoidin domain-containing receptor 2 (Homo sapiens, UniProt Q16832); assay: Inhibition of recombinant human DDR2 S642A mutant (467 to end residues) using KKSRGDYMTMQIG as substrate after 40 mins in presence of [gamma-33ATP] by radiometric scintillation counting analysis
[6] = target: Eukaryotic elongation factor 2 kinase (Homo sapiens, UniProt O00418, H23R); assay: Inhibition of recombinant human eEF2K H23R mutant (2 to end residues) using RKKFGESEKTKTK as substrate after 40 mins in presence of [gamma-33ATP] by radiometric scintillation counting analysis
[7] = target: RAC-gamma serine/threonine-protein kinase (Homo sapiens, UniProt Q9Y243, S472D); assay: Inhibition of recombinant human PKBgamma S472D mutant (117 to end residues) using GRPRTSSFAEGKK as substrate incubated for 40 mins in presence of [gamma33P]ATP by radiometric scintillation counting analysis
[8] = target: Serine/threonine-protein kinase 38-like (Homo sapiens, UniProt Q9Y2H1); assay: Inhibition of recombinant human NDR2 (83 to end residues) using RSRSRSRSRSRSRSR as substrate measured after 40 mins in presence of [gamma33P]ATP by radiometric scintillation counting analysis
[9] = target: Ribosomal protein S6 kinase beta-1 (Homo sapiens, UniProt P23443, T412E); assay: Inhibition of recombinant human p70S6K T412E mutant (1 to 421 residues) using KKRNRTLTV as substrate measured after 40 mins in presence of [gamma33P]ATP by radiometric scintillation counting analysis
[10] = target: Mitogen-activated protein kinase kinase kinase 10 (Homo sapiens, UniProt Q02779); assay: Inhibition of recombinant human MLK2 (1 to 499 residues) using myelin basic protein as substrate incubated for 40 mins in presence of [gamma-33ATP by radiometric scintillation counting analysis
[11] = target: Serine/threonine-protein kinase 24 (Homo sapiens, UniProt Q9Y6E0); assay: Inhibition of recombinant human MST3 (1 to 304 residues) using ERMRPRKRQGSVR as substrate measured after 40 mins in presence of [gamma33P]ATP by radiometric scintillation counting analysis
[12] = target: Hepatocyte growth factor receptor (Homo sapiens, UniProt P08581, Y1230D); assay: Inhibition of recombinant human MET A1209G/V1290L/Y1248D triple mutant (974 to end residues) using KKKGQEEEYVFIE as substrate incubated for 40 mins in presence of [gamma-33ATP by radiometric scintillation counting analysis
[13] = target: Dual specificity mitogen-activated protein kinase kinase 6 (Homo sapiens, UniProt P52564); assay: Inhibition of recombinant human MKK6 (4 to end residues) using SAPK2 as substrate incubated for 40 mins by radiometric scintillation counting analysis
[14] = target: Serine/threonine-protein kinase PAK 6 (Homo sapiens, UniProt Q9NQU5); assay: Inhibition of recombinant human PAK6 (382 to end residues) using RRRLSFAEPG as substrate measured after 40 mins in presence of [gamma33P]ATP by radiometric scintillation counting analysis
[15] = Inhibition of recombinant human EphB2 A848S/K918E double mutant (560 to end residues) using poly(Glu, Tyr) 4:1 as substrate after 40 mins in presence of [gamma-33ATP] by radiometric scintillation counting analysis
Ephrin type-B receptor 4 = Ephrin type-B receptor 4 (Homo sapiens, UniProt P54760); assay: Inhibition of recombinant human EphB4 (561 to end residues) using poly(Glu, Tyr) 4:1 as substrate after 40 mins in presence of [gamma-33ATP] by radiometric scintillation counting analysis
[16] = target: Receptor tyrosine-protein kinase erbB-2 (Homo sapiens, UniProt P04626, G778D); assay: Inhibition of recombinant human ERBB2 G778D (676 to end residues) using poly(Glu, Tyr) 4:1 as substrate after 40 mins in presence of [gamma-33ATP] by radiometric scintillation counting analysis
[17] = target: Tyrosine-protein kinase Fyn (Homo sapiens, UniProt P06241); assay: Inhibition of recombinant full length human Fyn using […] as substrate after 40 mins in presence of [gamma-33ATP] by radiometric scintillation counting analysis
[18] = target: Tyrosine-protein kinase HCK (Homo sapiens, UniProt P08631); assay: Inhibition of human HCK recombinant (230 to 497 residues) using […] as substrate after 40 mins by [gamma-33ATP] radiometric assay
[19] = target: Dual specificity mitogen-activated protein kinase kinase 2 (Homo sapiens, UniProt P36507); assay: Inhibition of recombinant full length human MEK2 using MBP as substrate incubated for 40 mins in presence of [gamma-33ATP by radiometric scintillation counting analysis
[20] = target: Mitogen-activated protein kinase 12 (Homo sapiens, UniProt P53778); assay: Inhibition of recombinant human full length SAPK3 using myelin basic protein as substrate incubated for 40 mins in presence of [gamma33P]ATP by radiometric scintillation counting analysis
[21] = target: Tyrosine-protein kinase SYK (Homo sapiens, UniProt P43405); assay: Inhibition of recombinant human full length SYK using poly(Glu, Tyr) 4:1 as substrate incubated for 40 mins in presence of [gamma33P]ATP by radiometric scintillation counting analysis
Wee1-like protein kinase = Wee1-like protein kinase (Homo sapiens, UniProt P30291); assay: Inhibition of recombinant human WEE1 (214 to end residues) using LSNLYHQGKFLQT as substrate incubated for 40 mins in presence of [gamma33P]ATP by radiometric scintillation counting analysis
[22] = target: Tyrosine-protein kinase receptor UFO (Homo sapiens, UniProt P30530, Q764R); assay: Inhibition of human recombinant Axl Q764R mutant (473 to end residues) using KKSRGDYMTMQIG as substrate measured after 40 mins in presence of [gamma33P]ATP by radiometric scintillation counting analysis

Measured: IC50

Serine/threonine-protein kinase PAK 6, sequence (Q9NQU5 whole entry): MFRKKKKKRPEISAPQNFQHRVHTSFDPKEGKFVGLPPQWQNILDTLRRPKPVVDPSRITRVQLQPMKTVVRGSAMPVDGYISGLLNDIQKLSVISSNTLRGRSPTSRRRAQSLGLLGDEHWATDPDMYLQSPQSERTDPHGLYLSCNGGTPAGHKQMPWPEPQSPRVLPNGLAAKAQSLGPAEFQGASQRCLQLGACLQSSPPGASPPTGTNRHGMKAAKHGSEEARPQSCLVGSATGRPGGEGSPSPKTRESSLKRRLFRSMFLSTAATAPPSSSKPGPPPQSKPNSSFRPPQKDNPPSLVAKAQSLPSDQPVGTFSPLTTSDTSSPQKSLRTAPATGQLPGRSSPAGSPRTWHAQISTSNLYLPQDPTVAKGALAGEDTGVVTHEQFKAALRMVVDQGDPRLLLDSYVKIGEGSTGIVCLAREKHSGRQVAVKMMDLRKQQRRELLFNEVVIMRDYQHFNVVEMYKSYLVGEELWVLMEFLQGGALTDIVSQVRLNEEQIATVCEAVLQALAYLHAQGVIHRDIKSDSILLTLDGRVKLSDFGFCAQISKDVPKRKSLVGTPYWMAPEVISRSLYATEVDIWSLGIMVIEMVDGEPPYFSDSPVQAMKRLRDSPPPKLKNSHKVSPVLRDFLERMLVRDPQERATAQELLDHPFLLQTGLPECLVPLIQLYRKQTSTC
Serine/threonine-protein kinase 38-like, sequence (Q9Y2H1 whole entry, the tested form may be a part): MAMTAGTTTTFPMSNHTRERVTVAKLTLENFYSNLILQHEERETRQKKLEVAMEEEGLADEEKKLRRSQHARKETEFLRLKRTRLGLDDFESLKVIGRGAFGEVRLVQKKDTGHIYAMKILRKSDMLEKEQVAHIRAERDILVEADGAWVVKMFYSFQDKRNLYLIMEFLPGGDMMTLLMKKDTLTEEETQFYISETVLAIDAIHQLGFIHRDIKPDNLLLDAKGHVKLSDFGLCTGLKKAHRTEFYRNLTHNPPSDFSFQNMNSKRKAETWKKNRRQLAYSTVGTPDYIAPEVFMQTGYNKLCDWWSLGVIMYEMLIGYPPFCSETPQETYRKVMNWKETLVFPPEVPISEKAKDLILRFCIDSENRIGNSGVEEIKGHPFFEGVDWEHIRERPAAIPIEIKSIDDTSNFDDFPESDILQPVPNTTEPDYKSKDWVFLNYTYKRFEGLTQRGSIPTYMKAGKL
Ribosomal protein S6 kinase beta-1, sequence (P23443 whole entry T412E, the tested form may be a part): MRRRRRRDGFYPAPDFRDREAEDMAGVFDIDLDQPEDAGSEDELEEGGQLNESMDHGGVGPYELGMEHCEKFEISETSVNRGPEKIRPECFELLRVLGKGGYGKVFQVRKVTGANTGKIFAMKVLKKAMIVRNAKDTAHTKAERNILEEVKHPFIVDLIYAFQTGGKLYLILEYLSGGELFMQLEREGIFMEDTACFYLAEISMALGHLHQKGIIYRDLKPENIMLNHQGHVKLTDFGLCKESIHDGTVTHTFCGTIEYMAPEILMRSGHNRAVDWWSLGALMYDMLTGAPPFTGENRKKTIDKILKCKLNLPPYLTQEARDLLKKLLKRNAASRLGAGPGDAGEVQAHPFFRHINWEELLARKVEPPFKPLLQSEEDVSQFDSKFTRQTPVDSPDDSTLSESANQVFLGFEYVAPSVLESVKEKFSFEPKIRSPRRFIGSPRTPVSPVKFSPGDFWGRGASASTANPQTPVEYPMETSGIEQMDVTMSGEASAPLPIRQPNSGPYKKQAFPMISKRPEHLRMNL
Serine/threonine-protein kinase B-raf, sequence (P15056 2-766 V600E limits assumed): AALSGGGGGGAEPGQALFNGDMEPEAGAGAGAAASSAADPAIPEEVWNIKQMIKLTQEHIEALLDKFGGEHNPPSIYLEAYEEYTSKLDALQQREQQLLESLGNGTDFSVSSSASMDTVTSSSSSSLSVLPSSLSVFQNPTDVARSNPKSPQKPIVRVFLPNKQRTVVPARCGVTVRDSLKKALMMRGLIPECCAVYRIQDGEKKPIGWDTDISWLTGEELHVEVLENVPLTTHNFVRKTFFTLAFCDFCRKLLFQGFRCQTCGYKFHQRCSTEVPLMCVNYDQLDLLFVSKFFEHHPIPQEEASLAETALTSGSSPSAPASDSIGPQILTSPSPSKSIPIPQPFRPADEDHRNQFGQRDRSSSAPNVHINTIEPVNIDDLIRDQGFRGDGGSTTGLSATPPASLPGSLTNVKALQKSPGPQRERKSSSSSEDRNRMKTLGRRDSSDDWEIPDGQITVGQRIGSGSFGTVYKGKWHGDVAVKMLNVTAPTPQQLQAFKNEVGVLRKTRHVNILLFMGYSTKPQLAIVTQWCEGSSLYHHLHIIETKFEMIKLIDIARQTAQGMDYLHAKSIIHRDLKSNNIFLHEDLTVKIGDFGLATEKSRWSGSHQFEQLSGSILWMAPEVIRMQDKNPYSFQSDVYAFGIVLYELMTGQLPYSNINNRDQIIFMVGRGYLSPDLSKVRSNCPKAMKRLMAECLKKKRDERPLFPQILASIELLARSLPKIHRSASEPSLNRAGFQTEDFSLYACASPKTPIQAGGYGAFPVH
Wee1-like protein kinase, sequence (P30291 whole entry): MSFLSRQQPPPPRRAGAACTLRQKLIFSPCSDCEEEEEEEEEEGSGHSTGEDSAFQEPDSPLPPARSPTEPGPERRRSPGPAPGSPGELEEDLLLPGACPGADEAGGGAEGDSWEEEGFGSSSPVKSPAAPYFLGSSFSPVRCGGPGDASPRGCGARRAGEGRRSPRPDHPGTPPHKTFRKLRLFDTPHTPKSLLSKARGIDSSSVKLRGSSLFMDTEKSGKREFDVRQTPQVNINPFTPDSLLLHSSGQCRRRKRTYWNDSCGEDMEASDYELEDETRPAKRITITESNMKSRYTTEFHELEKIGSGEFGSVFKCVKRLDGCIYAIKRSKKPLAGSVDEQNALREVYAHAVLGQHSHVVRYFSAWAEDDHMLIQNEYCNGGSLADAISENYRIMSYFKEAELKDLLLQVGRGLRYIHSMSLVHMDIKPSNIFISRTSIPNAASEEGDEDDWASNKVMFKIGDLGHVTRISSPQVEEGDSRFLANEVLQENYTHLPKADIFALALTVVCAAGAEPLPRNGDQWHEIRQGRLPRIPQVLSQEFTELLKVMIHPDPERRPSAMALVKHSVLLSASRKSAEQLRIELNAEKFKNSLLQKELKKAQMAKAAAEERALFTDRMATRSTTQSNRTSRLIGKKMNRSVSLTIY
Hepatocyte growth factor receptor, sequence (P08581 25-1390 Y1230D limits assumed): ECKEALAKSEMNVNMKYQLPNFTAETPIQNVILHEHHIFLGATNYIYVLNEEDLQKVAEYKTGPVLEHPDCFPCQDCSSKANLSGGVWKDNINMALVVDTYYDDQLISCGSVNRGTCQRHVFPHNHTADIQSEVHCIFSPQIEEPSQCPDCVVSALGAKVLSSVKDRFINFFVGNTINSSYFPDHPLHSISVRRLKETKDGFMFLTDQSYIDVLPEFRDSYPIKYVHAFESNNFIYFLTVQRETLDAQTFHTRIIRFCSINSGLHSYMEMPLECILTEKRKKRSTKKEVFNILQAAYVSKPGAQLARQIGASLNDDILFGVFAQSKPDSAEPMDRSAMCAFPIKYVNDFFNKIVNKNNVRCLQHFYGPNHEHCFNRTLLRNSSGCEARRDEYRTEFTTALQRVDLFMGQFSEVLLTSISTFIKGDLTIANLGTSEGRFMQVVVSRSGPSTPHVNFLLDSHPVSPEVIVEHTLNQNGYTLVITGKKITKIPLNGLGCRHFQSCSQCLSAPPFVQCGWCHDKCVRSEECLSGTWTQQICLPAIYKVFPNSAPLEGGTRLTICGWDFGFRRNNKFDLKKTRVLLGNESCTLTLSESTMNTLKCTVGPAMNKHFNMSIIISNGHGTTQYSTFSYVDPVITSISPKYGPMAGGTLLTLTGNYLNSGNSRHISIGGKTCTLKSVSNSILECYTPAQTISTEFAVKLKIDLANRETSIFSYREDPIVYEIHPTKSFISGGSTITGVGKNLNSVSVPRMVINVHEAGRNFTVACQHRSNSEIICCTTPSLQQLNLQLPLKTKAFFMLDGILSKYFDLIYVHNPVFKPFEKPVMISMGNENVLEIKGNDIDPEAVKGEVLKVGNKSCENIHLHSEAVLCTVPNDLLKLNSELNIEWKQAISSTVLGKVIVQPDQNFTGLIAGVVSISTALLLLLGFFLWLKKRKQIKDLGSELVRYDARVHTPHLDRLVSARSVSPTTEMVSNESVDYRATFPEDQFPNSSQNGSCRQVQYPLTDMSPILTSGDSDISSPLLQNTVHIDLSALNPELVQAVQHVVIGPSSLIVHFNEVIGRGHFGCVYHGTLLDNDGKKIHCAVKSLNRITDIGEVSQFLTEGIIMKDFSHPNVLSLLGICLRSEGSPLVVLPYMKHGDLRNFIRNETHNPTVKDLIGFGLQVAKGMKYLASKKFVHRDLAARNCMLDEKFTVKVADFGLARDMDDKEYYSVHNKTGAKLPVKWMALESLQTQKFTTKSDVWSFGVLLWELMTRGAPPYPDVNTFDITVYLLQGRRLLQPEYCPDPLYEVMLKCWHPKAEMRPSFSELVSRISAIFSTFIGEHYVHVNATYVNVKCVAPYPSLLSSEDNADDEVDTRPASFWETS
RAC-gamma serine/threonine-protein kinase, sequence (Q9Y243 2-479 S472D limits assumed): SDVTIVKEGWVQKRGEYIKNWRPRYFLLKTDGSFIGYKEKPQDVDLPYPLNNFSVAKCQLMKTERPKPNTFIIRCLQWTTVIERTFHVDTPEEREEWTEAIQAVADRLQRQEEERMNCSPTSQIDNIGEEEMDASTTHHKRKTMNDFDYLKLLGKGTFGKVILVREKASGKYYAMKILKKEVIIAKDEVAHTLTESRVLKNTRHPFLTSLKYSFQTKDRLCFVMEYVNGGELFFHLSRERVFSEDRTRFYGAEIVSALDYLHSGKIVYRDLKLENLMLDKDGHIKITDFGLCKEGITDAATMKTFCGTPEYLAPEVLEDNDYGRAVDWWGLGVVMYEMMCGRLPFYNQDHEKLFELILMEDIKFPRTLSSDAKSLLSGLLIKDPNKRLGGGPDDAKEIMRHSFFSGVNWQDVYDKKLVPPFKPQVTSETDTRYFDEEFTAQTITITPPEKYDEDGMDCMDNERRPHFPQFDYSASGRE

CN(C)c1ccc(C(=O)Nc2cccc(NC(=O)COc3ccc4c(=O)ccoc4c3)c2)cc1
> 10 µM: [1] | [2] | [3] | [4] | [5] | [6] | [7] | [8] | [9] | [10] | [11] | [12] | [13] | [14] | [15] | Ephrin type-B receptor 4 | [16] | [17] | [18] | [19] | [20] | [21] | Wee1-like protein kinase | [22]
